The values below come from PMC6463685, “WS-5 Extract of Curcuma longa, Chaenomeles sinensis, and Zingiber officinale Contains Anti-AChE Compounds and Improves β-Amyloid-Induced Memory Impairment in Mice” (Evidence-based Complementary and Alternative Medicine : eCAM, 2019).

This assay concerns the target T1, acetylcholinesterase (AChE).
T1 construct: AChE used with commercial BioVision colorimetric AChE assay kit
Put plainly: colorimetric AChE kit (choline oxidase/probe), […] nm. The format is biochemical. The note with it: 37°C, 20 min, AChE substrate 5 mM.

`CCCCC/C=C/C(=O)CCc1ccc(O)c(OC)c1` [6-Shogaol] gave a 50% inhibitory concentration (IC50) (also printed as 17.92 μg/ml) of 64.8 µM.

Under “also printed as 10.42 μg/ml”, `O=C(O)c1ccc(O)c(O)c1` [Protocatechuic acid] registered an IC50 of 67.6 µM.
